According to ChEMBL document CHEMBL1201862, “PubChem BioAssay data set” (2004):
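Exposure lasted 48 hours, with cells grown in 96-well plates and compounds tested at five concentrations. GI50 marks 50% less growth.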 Activity calls are given as the source filed them. Rule as the data show it: active = GI50 up to about 1.1 µM and inactive = higher. Starred links: 1 amine or outer side, 2 acyl side, 3 side chain; linkers in the order of their positions; H or OH if unused. Non-standard residues stand in square brackets, D forms with d. Residues, ends and D or L forms follow the SMILES beside them. ξ: configuration not given here. X24 = O=C(C(CC(O)CO)O[*:1])[*:2]; Ile(3ξ) = CCC(C)[C@H](N)C(=O)O; NMeV = CN[C@H](C(=O)O)C(C)C; NMeA = CN[C@@H](C)C(=O)O; βAla = NCCC(=O)O

Experiments:
Assay in all cases: growth of human tumour cells (NCI), 48 h
A498 = system: A498
CCRF-CEM = system: CCRF-CEM
DLD-1 = system: DLD-1
HCT-15 = system: HCT-15
HOP-62 = system: HOP-62
HOP-92 = system: HOP-92
HT-29 = system: HT-29
K562 = system: K562
KM12 = system: KM12
OVCAR-3 = system: OVCAR-3
SF-268 = system: SF-268
SF-295 = system: SF-295
SF-539 = system: SF-539
SNB-19 = system: SNB-19
SW-620 = system: SW-620
TK-10 = system: TK-10
U-251 = system: U-251
UACC-257 = system: UACC-257
MDA-MB-231 = system: MDA-MB-231
MDA-MB-435 = system: MDA-MB-435

SMILES	GI50 (A498)	GI50 (CCRF-CEM)	GI50 (DLD-1)	GI50 (HCT-15) [µM]	GI50 (HOP-62)	GI50 (HOP-92)	GI50 (HT-29)	GI50 (K562)	GI50 (KM12)	GI50 (OVCAR-3)	GI50 (SF-268)	GI50 (SF-295)	GI50 (SF-539)	GI50 (SNB-19)	GI50 (SW-620)	GI50 (TK-10)	GI50 (U-251)	GI50 (UACC-257)	GI50 (MDA-MB-231)	GI50 (MDA-MB-435)
O=C(Cc1ccc([N+](=O)[O-])c([N+](=O)[O-])c1CC(=O)C(=O)Nc1cc(Cl)ccc1Cl)C(=O)Nc1cc(Cl)ccc1Cl	> 100 µM (inactive)	17.9 µM (inactive)	> 100 µM (inactive)	21.7	> 100 µM (inactive)	> 100 µM (inactive)	> 100 µM (inactive)	33.5 µM (inactive)	> 100 µM (inactive)	> 100 µM (inactive)	> 100 µM (inactive)	> 100 µM (inactive)	> 100 µM (inactive)	> 100 µM (inactive)	37.9 µM (inactive)	> 100 µM (inactive)	24.2 µM (inactive)	> 100 µM (inactive)	–	–
O=C1NC2C=CN(Cc3ccccc3)C=C2C(=O)N2CCCC12 (stereo not given)	> 100 µM (inactive)	> 100 µM (inactive)	> 100 µM (inactive)	> 100	> 100 µM (inactive)	> 100 µM (inactive)	> 100 µM (inactive)	–	> 100 µM (inactive)	> 100 µM (inactive)	> 100 µM (inactive)	> 100 µM (inactive)	> 100 µM (inactive)	> 100 µM (inactive)	> 100 µM (inactive)	> 100 µM (inactive)	> 100 µM (inactive)	> 100 µM (inactive)	–	–
Cc1ccc(NC(=O)/C(C#N)=C/c2ccccc2)c(C)c1	> 100 µM (inactive)	> 100 µM (inactive)	> 100 µM (inactive)	> 100	> 100 µM (inactive)	> 100 µM (inactive)	> 100 µM (inactive)	> 100 µM (inactive)	> 100 µM (inactive)	> 100 µM (inactive)	> 100 µM (inactive)	> 100 µM (inactive)	> 100 µM (inactive)	> 100 µM (inactive)	> 100 µM (inactive)	> 100 µM (inactive)	> 100 µM (inactive)	> 100 µM (inactive)	–	–
CCOc1ccc2c(c1)[n+]([O-])c(-c1ccccc1Cl)c(N)[n+]2[O-]	> 100 µM (inactive)	48.2 µM (inactive)	> 100 µM (inactive)	–	> 100 µM (inactive)	> 100 µM (inactive)	> 100 µM (inactive)	> 100 µM (inactive)	> 100 µM (inactive)	> 100 µM (inactive)	> 100 µM (inactive)	> 100 µM (inactive)	> 100 µM (inactive)	> 100 µM (inactive)	> 100 µM (inactive)	–	> 100 µM (inactive)	> 100 µM (inactive)	–	–
CCC(C)[C@@H]1NC(=O)[C@@H]2CCCN2C(=O)C(CC(O)CO)OC(=O)CCNC(=O)[C@H](C)N(C)C(=O)[C@H](C(C)C)N(C)C1=O (stereo not given in full) (cyclo([Ile(3ξ)][NMeV][NMeA][βAla][X24]P))	> 100 µM (inactive)	35.8 µM (inactive)	> 100 µM (inactive)	> 100	> 100 µM (inactive)	> 100 µM (inactive)	> 100 µM (inactive)	> 100 µM (inactive)	> 100 µM (inactive)	> 100 µM (inactive)	> 100 µM (inactive)	91 µM (inactive)	> 100 µM (inactive)	> 100 µM (inactive)	> 100 µM (inactive)	> 100 µM (inactive)	> 100 µM (inactive)	> 100 µM (inactive)	–	–
COc1ccc(-c2cc(C(=O)Nc3cccc(C(F)(F)F)c3)nc(S)n2)cc1	> 100 µM (inactive)	> 100 µM (inactive)	> 100 µM (inactive)	> 100	> 100 µM (inactive)	> 100 µM (inactive)	> 100 µM (inactive)	> 100 µM (inactive)	> 100 µM (inactive)	> 100 µM (inactive)	> 100 µM (inactive)	> 100 µM (inactive)	> 100 µM (inactive)	> 100 µM (inactive)	> 100 µM (inactive)	> 100 µM (inactive)	> 100 µM (inactive)	> 100 µM (inactive)	–	–
O=C(O)c1c2c(cc3c(=O)cc(-c4ccccc4)oc13)CCCC2	> 100 µM (inactive)	> 100 µM (inactive)	> 100 µM (inactive)	> 100	> 100 µM (inactive)	> 100 µM (inactive)	> 100 µM (inactive)	> 100 µM (inactive)	> 100 µM (inactive)	> 100 µM (inactive)	> 100 µM (inactive)	> 100 µM (inactive)	> 100 µM (inactive)	> 100 µM (inactive)	> 100 µM (inactive)	> 100 µM (inactive)	> 100 µM (inactive)	> 100 µM (inactive)	–	–
O=C(/C=C\c1cccc2ccccc12)c1cccs1	15.6 µM (inactive)	2.74 µM (inactive)	3.77 µM (inactive)	3.18	17.7 µM (inactive)	11.9 µM (inactive)	5.21 µM (inactive)	2.56 µM (inactive)	4.88 µM (inactive)	11.4 µM (inactive)	11 µM (inactive)	15.6 µM (inactive)	16.9 µM (inactive)	12.6 µM (inactive)	1.62 µM (inactive)	19 µM (inactive)	4.43 µM (inactive)	13.2 µM (inactive)	–	–
COc1ccc(C(=O)C(c2ccc(OC)cc2)C2C(=O)Oc3ccccc32)cc1 (stereo not given)	> 10 µM (inactive)	> 10 µM (inactive)	> 10 µM (inactive)	> 10	> 10 µM (inactive)	> 10 µM (inactive)	> 10 µM (inactive)	> 10 µM (inactive)	> 10 µM (inactive)	> 10 µM (inactive)	> 10 µM (inactive)	> 10 µM (inactive)	> 10 µM (inactive)	> 10 µM (inactive)	> 10 µM (inactive)	> 10 µM (inactive)	> 10 µM (inactive)	> 10 µM (inactive)	–	–
CC[C@@]1(O)C[C@H](OC2CC(N(C)C)C(OC3CC(O)C(OC4CCC(=O)C(C)O4)C(C)O3)C(C)O2)c2c(cc3c(c2O)C(=O)c2c(O)ccc(O)c2C3=O)[C@H]1C(=O)OC (stereo not given in full)	–	8.38e-05 µM (active)	< 1e-05 µM (active)	9.75e-05	8.75e-05 µM (active)	0.0008 µM (active)	4.83e-05 µM (active)	8.83e-05 µM (active)	8.77e-05 µM (active)	0.000233 µM (active)	0.000132 µM (active)	6.81e-05 µM (active)	0.000114 µM (active)	5.51e-05 µM (active)	5.2e-05 µM (active)	0.00152 µM (active)	6.35e-05 µM (active)	0.00202 µM (active)	0.00288 µM (active)	0.000929 µM (active)
COc1cc2cc3c4c(cc(OC)c(OC)c4c2cc1OC)CCN3C(=O)CCC(=O)O	97.9 µM (inactive)	> 100 µM (inactive)	> 100 µM (inactive)	–	> 100 µM (inactive)	> 100 µM (inactive)	> 100 µM (inactive)	> 100 µM (inactive)	> 100 µM (inactive)	> 100 µM (inactive)	> 100 µM (inactive)	> 100 µM (inactive)	> 100 µM (inactive)	> 100 µM (inactive)	> 100 µM (inactive)	> 100 µM (inactive)	> 100 µM (inactive)	> 100 µM (inactive)	–	–
CN(C)CCc1ccc(Cl)cc1Cl	> 100 µM (inactive)	> 100 µM (inactive)	> 100 µM (inactive)	> 100	> 100 µM (inactive)	62.2 µM (inactive)	> 100 µM (inactive)	> 100 µM (inactive)	> 100 µM (inactive)	–	> 100 µM (inactive)	> 100 µM (inactive)	> 100 µM (inactive)	> 100 µM (inactive)	> 100 µM (inactive)	> 100 µM (inactive)	> 100 µM (inactive)	> 100 µM (inactive)	–	–
Cc1cc(Cl)ccc1NC(=O)C1C(=O)C(=O)N(c2ccc(Cl)cc2C)C1=O (stereo not given)	> 100 µM (inactive)	55.6 µM (inactive)	> 100 µM (inactive)	57.5	> 100 µM (inactive)	14.9 µM (inactive)	96.2 µM (inactive)	40.6 µM (inactive)	–	36.9 µM (inactive)	53 µM (inactive)	95.5 µM (inactive)	> 100 µM (inactive)	21 µM (inactive)	> 100 µM (inactive)	> 100 µM (inactive)	57.3 µM (inactive)	> 100 µM (inactive)	–	–
O=C(O)c1cc2ccc(Cl)cc2c(O)c1C1=CCCCC1	32.6 µM (inactive)	41.7 µM (inactive)	41.7 µM (inactive)	56.8	33.7 µM (inactive)	23.2 µM (inactive)	46.1 µM (inactive)	33.1 µM (inactive)	42.4 µM (inactive)	33.5 µM (inactive)	52.2 µM (inactive)	32.3 µM (inactive)	36.6 µM (inactive)	39 µM (inactive)	44.5 µM (inactive)	63.8 µM (inactive)	36.9 µM (inactive)	31.5 µM (inactive)	–	–
COc1ccc2c(c1)[n+]([O-])c(C(=O)C/C(=N\NC(=O)C[N+](C)(C)C)C(=O)Nc1cc(Cl)ccc1Cl)c(C)[n+]2[O-]	> 100 µM (inactive)	> 100 µM (inactive)	> 100 µM (inactive)	> 100	> 100 µM (inactive)	> 100 µM (inactive)	> 100 µM (inactive)	> 100 µM (inactive)	> 100 µM (inactive)	> 100 µM (inactive)	> 100 µM (inactive)	> 100 µM (inactive)	> 100 µM (inactive)	> 100 µM (inactive)	> 100 µM (inactive)	> 100 µM (inactive)	> 100 µM (inactive)	> 100 µM (inactive)	–	–
